The numbers were not newly measured in paper PMC6673652 (Nature protocols, 2018), which cites them from elsewhere.

Read-outs that look alike come from different tables or passages of the source.

The mark [1] stands for this setting: Cy5.5-labeled peptide, 5 μM, 3 hrs, previously tested.

As to `Nc1cc(C(F)(F)F)c(-c2cc(N3CCOCC3)nc(N3CCOCC3)n2)cn1` [BKM120], the “BBB crossing as known from literature” value is on record as “known to cross the BBB”.

`CC(C)(C)c1nc(-c2cccc(NS(=O)(=O)c3c(F)cccc3F)c2F)c(-c2ccnc(N)n2)s1` [Dabrafenib]: the “BBB penetration as known from literature” value is reported as “limited BBB penetration”.

In the case of TFFYGGSRGKRNNFKTEEY [Angiopep-2], in the series on BBB organoids, the BBB organoid permeability entry is “High”. Also, under “in vivo”, the “BBB crossing as known from literature” value is recorded as “known to cross the BBB via receptor mediated transcytosis” and the “BBB penetration in vivo” value is “Yes[6],[29]”.

ZAGYLLGKINLKALAALAKKIL [Transportan 10]: the BBB organoid permeability result in the series with BBB organoids (setting [1]) is “High”.

In the case of ZHARIKPTFRRLKWKYKGKFW [L-2], in the series with BBB organoids, the BBB organoid permeability result is on record as “High”.

ZKGTYKKKLMRIPLKGT [SVM3]: in the series on BBB organoids, the BBB organoid permeability result is “High”.

For ZLRRERQSRLRRERQSR [DPV15], in the series with BBB organoids, the BBB organoid permeability result is “Very high”. The “BBB penetration in vivo” value (in vivo) is “Yes [6]”.

Regarding ZLYKKGPAKKGRPPLRGWFH [SVM4], the BBB organoid permeability result in the series on BBB organoids is “High”.

In the case of ZPLSSIFSRIGDP [PreS2-TLM], the BBB organoid permeability entry in the series with BBB organoids (setting [1]) is recorded as “High”.

With ZPPRPPRPPR [(PPR)3], in the series with BBB organoids, the BBB organoid permeability entry is reported as “High”.

Regarding ZPPRPPRPPRPPRPPR [(PPR)5], the BBB organoid permeability entry in the series on BBB organoids is given as “High”.

Regarding ZRGGRLSYSRRRFSTSTGR [SynB1], the “BBB penetration in vivo” value (in vivo) is “Yes [31]”.

Consider ZRKKRRQRRR [HIV-1 Tat], for which the “BBB penetration in vivo” value was “Yes [31]”. Further, in the series on BBB organoids (setting [1]), the BBB organoid permeability entry was “High”.

As for ZRQIKIWFQNRRMKWKK [Penetratin], the BBB organoid permeability entry with BBB organoids is listed as “High”. The “BBB penetration in vivo” value (in vivo) was “Yes [31]”.

Consider ZRQVTIWFQNRRVKEKK [HoxA-13], for which, in the series with BBB organoids, the BBB organoid permeability result was “Very high”. The “BBB penetration in vivo” value (in vivo) is “Yes [6]”.

For the molecule ZRRRRRRRR [Polyarginine], in the series with BBB organoids, the BBB organoid permeability entry is “High”.

For ZSQIKIWFQNKRAKIKK [Engrailed-2], in the series on BBB organoids, the BBB organoid permeability result is “Very high”.

As to ZVELPPPVELPPPVELPPP [SAP(E)], in the series with BBB organoids, the BBB organoid permeability result was “High”.

Consider ZVKRGLKLRHVRPRVTRMDV [DPV1047], for which, in the series with BBB organoids, the BBB organoid permeability result was “High”.

For ZVPALR [Bip(1)], the BBB organoid permeability result with BBB organoids is reported as “Very high”. Also, where the note is “in vivo”, the “BBB penetration in vivo” value is “Yes [6]”.

As for ZVRLPPPVRLPPPVRLPPP [SAP], the BBB organoid permeability result in the series with BBB organoids was “High”.

As for ZVSALK [Bip(2)], the BBB organoid permeability result in the series with BBB organoids is listed as “Very high”. For the setting “in vivo”, the “BBB penetration in vivo” value is “Yes [6]”.
